Experimental data from patent US6949571B2, “1,2-dihydropyridine compounds, process for preparation of the same and use thereof” (Eisai Co., Ltd., priority 2000, dated 2005).
Where a name gives a salt, the structure may show the parent alone.

System: AMPA receptor
Conditions: Table 2; suppression of AMPA-induced calcium influx into nerve cells
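Also: primary rat embryonic cortical neurons grown on an astrocyte layer in 96-well plates, used after at least 8 to 10 days in culture, Fura2-AM fluorescence ratio at 340/380 nm excitation.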

| SMILES | IC50 |
| --- | --- |
| CN(C)CCOc1cccc(-n2cc(-c3ccccn3)cc(-c3ccccc3Cl)c2=O)c1 [Example 144, 3-(2-Chlorophenyl)-5-(2-pyridyl)-1-(3-dimethylaminoethoxyphenyl)-1,2-dihydropyridin-2-one] | 10 nM |
| O=c1c(-c2ccccc2CO)cc(-c2ccccn2)cn1-c1ccccc1 [Example 147, 3-(2-Hydroxymethylphenyl)-5-(2-pyridyl)-1-phenyl-1,2-dihydropyridin-2-one] | 1600 nM |
| N#Cc1ccccc1-c1cc(-c2ccccn2)cn(-c2ccc(CO)cc2)c1=O [Example 148, 3-(2-Cyanophenyl)-5-(2-pyridyl)-1-(4-hydroxymethylphenyl)-1,2-dihydropyridin-2-one] | 800 nM |
| N#Cc1ccccc1-c1cc(-c2ccccn2)cn(-c2ccccc2CO)c1=O [Example 149, 3-(2-Cyanophenyl)-5-(2-pyridyl)-1-(2-hydroxymethylphenyl)-1,2-dihydropyridin-2-one] | 100 nM |
| N#CCc1ccc(-n2cc(-c3ccccn3)cc(-c3ccccc3C#N)c2=O)cc1 [Example 150, 3-(2-Cyanophenyl)-5-(2-pyridyl)-1-(4-cyanomethylphenyl)-1,2-dihydropyridin-2-one] | 300 nM |
| N#CCc1ccccc1-n1cc(-c2ccccn2)cc(-c2ccccc2C#N)c1=O [Example 151, 3-(2-Cyanophenyl)-5-(2-pyridyl)-1-(2-cyanomethylphenyl)-1,2-dihydropyridin-2-one] | 300 nM |
| CCS(=O)(=O)c1ccc(-n2cc(-c3ccccn3)cc(-c3ccccc3C#N)c2=O)cn1 [Example 152, 3-(2-Cyanophenyl)-5-(2-pyridyl)-1-(2-ethylsulfonylpyridin-5-yl)-1,2-dihydropyridin-2-one] | 4000 nM |
| CN(C)Cc1ccccc1-c1cc(-c2ccccn2)cn(-c2ccccc2)c1=O [Example 154, 3-(2-Dimethylaminomethylphenyl)-5-(2-pyridyl)-1-phenyl-1,2-dihydropyridin-2-one dihydrochloride] | 5000 nM |
| CCN(CC)Cc1cccc(-c2cc(-c3ccccc3C#N)c(=O)n(-c3ccccc3)c2)n1 [Example 157, 3-(2-Cyanophenyl)-5-(6-diethylaminomethyl-2-pyridyl)-1-phenyl-1,2-dihydropyridin-2-one] | 500 nM |
| N#Cc1ccccc1-c1cc(-c2ccccn2)cn(-c2ccccn2)c1=O [Example 159, 3-(2-Cyanophenyl)-1-(2-pyridyl)-5-(2-pyridyl)-1,2-dihydropyridin-2-one] | 1600 nM |
| N#Cc1ccccc1-c1cc(-c2ccc(O)cn2)cn(-c2ccccc2)c1=O [Example 163, 3-(2-Cyanophenyl)-5-(5-hydroxypyridin-2-yl)-1-phenyl-1,2-dihydropyridin-2-one] | 8200 nM |
| O=c1c(-c2cccc(O)n2)cc(-c2ccccn2)cn1-c1ccccc1 [Example 165, 3-(2-Hydroxypyridin-6-yl)-1-phenyl-5-(2-pyridyl)-1,2-dihydropyridin-2-one] | 400 nM |
| N#Cc1ccccc1-c1cc(-c2ccccn2)cn(-c2ccc3nc(N)sc3c2)c1=O [Example 166, 1-(2-Aminobenzothiazol-6-yl)-3-(2-cyanophenyl)-5-(2-pyridyl)-1,2-dihydropyridin-2-one] | 300 nM |
| N#Cc1ccccc1-c1cc(-c2ccccn2)cn(C2CCCC2)c1=O [Example 171, 3-(2-Cyanophenyl)-1-cyclopentyl-5-(2-pyridyl)-1,2-dihydropyridin-2-one] | 2300 nM |
| N#Cc1ccccc1-c1cc(-c2cccc[n+]2[O-])cn(-c2ccccc2)c1=O [Example 173, 3-(2-Cyanophenyl)-5-(2-pyridyl 1-oxide)-1-phenyl-1,2-dihydropyridin-2-one] | 4200 nM |
| O=c1c(Nc2ccccc2)cc(-c2ccccn2)cn1-c1ccccc1 [Example 174, 3-Phenylamino-5-(2-pyridyl)-1-phenyl-1,2-dihydropyridin-2-one] | 3300 nM |
| O=c1c(NC23CC4CC(CC(C4)C2)C3)cc(-c2ccccn2)cn1-c1ccccc1 [Example 176, 3-(1-Adamantylamino)-5-(2-pyridyl)-1-phenyl-1,2-dihydropyridin-2-one] | 5400 nM |
| O=c1c(C23CC4CC(CC(C4)C2)C3)cc(-c2ccccn2)cn1-c1ccccc1 [Example 178, 3-(1-Adamantyl)-5-(2-pyridyl)-1-phenyl-1,2-dihydropyridin-2-one] | 2000 nM |
| N#Cc1ccccc1-c1cc(-c2ccccn2)cn(C2=CCCN(Cc3ccccc3)C2)c1=O [Example 180, 3-(2-Cyanophenyl)-5-(2-pyridyl)-1-(1-benzyl-1,2,3,6-tetrahydropyridin-5-yl)-1,2-dihydropyridin-2-one] | 500 nM |
| N#Cc1ccccc1-c1cc(-c2nc3ccccc3n2-c2ccccc2)cn(-c2ccccc2)c1=O [Example 182, 3-(2-Cyanophenyl)-5-(1-phenylbenzimidazol-2-yl)-1-phenyl-1,2-dihydropyridin-2-one] | 6000 nM |
| O=c1c(-c2ccccc2Cl)cc(-c2nc3ccccc3o2)cn1-c1ccccc1 [Example 184, 3-(2-Chlorophenyl)-5-(2-benzoxazolyl)-1-phenyl-1,2-dihydropyridin-2-one] | 2300 nM |
| O=c1c(-c2ccccc2Cl)cc(COc2ccccc2)cn1-c1ccccc1 [Example 185, 3-(2-Chlorophenyl)-5-phenoxymethyl-1-phenyl-1,2-dihydropyridin-2-one] | 1700 nM |

| SMILES | IC50 |
| --- | --- |
| O=c1c(C=Cc2ccccn2)cc(-c2ccccn2)cn1-c1ccccc1 [Example 187, 3-(2-Pyridylethenyl)-5-(2-pyridyl)-1-phenyl-1,2-dihydropyridin-2-one] | 6100 nM |
| O=c1c(Sc2ccc(Cl)cc2)cc(-c2ccccn2)cn1-c1ccccc1 [Example 188, 3-(4-Chlorophenylthio)-5-(2-pyridyl)-1-phenyl-1,2-dihydropyridin-2-one] | 8500 nM |
| O=c1c(-c2nc3ccccc3[nH]2)cc(-c2ccccn2)cn1-c1ccccc1 [Example 190, 3-(1H-Benzimidazol-2-yl)-5-(2-pyridyl)-1-phenyl-1,2-dihydropyridin-2-one] | 600 nM |
| O=c1c(C2CCCCC2)cc(-c2ccccn2)cn1-c1ccccc1 [Example 192, 3-Cyclohexyl-5-(2-pyridyl)-1-phenyl-1,2-dihydropyridin-2-one] | 1100 nM |
| Cc1nc(-c2ccccc2-c2cc(-c3ccccn3)cn(-c3ccccc3)c2=O)no1 [Example 193, 3-[2-(5-Methyl-1,2,4-oxadiazol-3-yl)phenyl]-1-phenyl-5-(2-pyridyl)-1,2-dihydropyridin-2-one] | 400 nM |
| Cc1cccc(-c2cc(-c3ccccc3C#N)c(=O)n(-c3ccccc3)c2)n1 [Example 195, 3-(2-Cyanophenyl)-5-(6-methylpyridin-2-yl)-1-phenyl-1,2-dihydropyridin-2-one] | 200 nM |
| Cc1ccc(-c2cc(-c3ccccc3C#N)c(=O)n(-c3ccccc3)c2)nc1 [Example 196, 3-(2-Cyanophenyl)-5-(5-methylpyridin-2-yl)-1-phenyl-1,2-dihydropyridin-2-one] | 300 nM |
| Cc1ccnc(-c2cc(-c3ccccc3C#N)c(=O)n(-c3ccccc3)c2)c1 [Example 197, 3-(2-Cyanophenyl)-5-(4-methylpyridin-2-yl)-1-phenyl-1,2-dihydropyridin-2-one] | 2900 nM |
| N#Cc1ccccc1-c1cc(-c2ncccc2O)cn(-c2ccccc2)c1=O [Example 198, 3-(2-Cyanophenyl)-5-(3-hydroxypyridin-2-yl)-1-phenyl-1,2-dihydropyridin-2-one] | 300 nM |
| COc1ccc(-c2cc(-c3ccccc3C#N)c(=O)n(-c3ccccc3)c2)cn1 [Example 200, 3-(2-Cyanophenyl)-5-(2-methoxypyridin-5-yl)-1-phenyl-1,2-dihydropyridin-2-one] | 2000 nM |
| N#Cc1ccccc1-c1cc(-c2nccs2)cn(-c2ccccc2)c1=O [Example 201, 3-(2-Cyanophenyl)-1-phenyl-5-(2-thiazoyl)-1,2-dihydropyridin-2-one] | 200 nM |
| N#Cc1ccccc1-c1cc(-c2ccncn2)cn(-c2ccccc2)c1=O [Example 202, 3-(2-Cyanophenyl)-1-phenyl-5-(4-pyrimidinyl)-1,2-dihydropyridin-2-one] | 700 nM |
| N#Cc1ccccc1-c1cc(-c2cccnn2)cn(-c2ccccc2)c1=O [Example 204, 3-(2-Cyanophenyl)-1-phenyl-5-(3-pyridazyl)-1,2-dihydropyridin-2-one] | 1600 nM |
| COc1cccc(-c2cc(-c3ccccc3C#N)c(=O)n(-c3ccccc3)c2)n1 [Example 206, 3-(2-Cyanophenyl)-5-(2-methoxypyridin-6-yl)-1-phenyl-1,2-dihydropyridin-2-one] | 500 nM |
| N#Cc1ccccc1-c1cc(C2=COCCO2)cn(-c2ccccc2)c1=O [Example 209, 3-(2-Cyanophenyl)-5-(5.6-dihydro-1.4-dioxin-2-yl)-1-phenyl-1,2-dihydropyridin-2-one] | 7000 nM |
| N#Cc1ccccc1-c1cc(-c2cccc3ccccc23)cn(-c2cccnc2)c1=O [Example 210, 3-(2-Cyanophenyl)-5-(1-naphthyl)-1-(3-pyridyl)-1,2-dihydropyridin-2-one] | 5200 nM |
| N#Cc1ccccc1-c1cc(-c2ccc3ccccc3c2)cn(-c2cccnc2)c1=O [Example 211, 3-(2-Cyanophenyl)-5-(2-naphthyl)-1-(3-pyridyl)-1,2-dihydropyridin-2-one] | 3600 nM |
| N#Cc1ccccc1-c1cc(-c2ccccn2)cn(-c2ccc(N)cc2)c1=O [Example 215, 1-(4-Aminophenyl)-3-(2-cyanophenyl)-5-(2-pyridyl)-1,2-dihydropyridin-2-one] | 100 nM |
| N#Cc1ccccc1-c1cc(-c2ncccc2N)cn(-c2ccccc2)c1=O [Example 216, 5-(3-Aminopyridin-2-yl)-3-(2-cyanophenyl)-1-phenyl-1,2-dihydropyridin-2-one] | 2400 nM |
| N#Cc1ccccc1-c1cc(-c2ccc(N)cn2)cn(-c2ccccc2)c1=O [Example 217, 5-(5-Aminopyridin-2-yl)-3-(2-cyanophenyl)-1-phenyl-1,2-dihydropyridin-2-one] | 1300 nM |
| N#Cc1ccccc1-c1cc(-c2ncccn2)cn(-c2cccc(N)c2)c1=O [Example 218, 1-(3-Aminophenyl)-3-(2-cyanophenyl)-5-(2-pyrimidinyl)-1,2-dihydropyridin-2-one] | 100 nM |
